Laboratory results from patent US20230278972A1, “SUBSTITUTED HALOALKYL SULFONANILIDE HERBICIDES” (FMC Corporation, priority 2020, published 2023).

Assays:
Format in all cases: in vivo
corn (Zea mays) [1] = test: Test A1 preemergence, corn
Procedure, shortened: (§1)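 Herbicidal response was scored on plants treated either preemergence, by directed spray onto soil of a loam–sand blend after sowing, or postemergence on potted plants at the one- to two-leaf stage, 2–10 cm high. Test chemicals were carried in a non-phytotoxic solvent mix with surfactant.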

[2] = test system: Foxtail, Giant (giant foxtail, Setaria faberi); test: Test A1 preemergence, Foxtail, Giant
Procedure, shortened: (§2)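 Pre: seeds in loam/sand blend, directed soil spray. Post: potted plants, same soil, 2–10 cm, 1–2 leaf stage. Chemicals in non-phytotoxic solvent + surfactant for both.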

[3] = test system: goosegrass (Eleusine indica); test: Test A1 preemergence, goosegrass
Procedure, shortened: as §2

kochia (Bassia scoparia) [4] = test: Test A1 preemergence, kochia
Procedure, shortened: as §2

[5] = test system: Oat, Wild (wild oat, Avena fatua); test: Test A1 preemergence, Oat, Wild; conditions: 125 g ai/ha, 0 to 100 scale, 0 no effect, 100 complete control
Procedure, shortened: as §2

[6] = test system: Pigweed, Palmer (palmer amaranth, palmer pigweed, Amaranthus palmeri); test: Test A1 preemergence, Pigweed, Palmer
From the text: (§3) Seeds of plant species selected from, blackgrass (Alopecurus myosuroides), corn (Zea mays), Foxtail, Giant (giant foxtail, Setaria faberi), goosegrass (Eleusine indica), kochia (Bassia scoparia), Oat, Wild (wild oat, Avena fatua), Pigweed, Palmer (palmer amaranth, palmer pigweed, Amaranthus palmeri), ragweed (common ragweed, Ambrosia artemisiifolia), Ryegrass, Italian (Italian ryegrass, Lolium multiflorum), soybean (Glycine max), and wheat (Triticum aestivum) were planted into a blend of loam soil and sand and treated preemergence with a directed soil spray using test chemicals formulated in a non-phytotoxic solvent mixture which included a surfactant. At the same time, plants selected from these crop and weed species and also galium (catchweed bedstraw, Galium aparine) and horseweed (Erigeron canadensis) were planted in pots containing the same blend of loam soil and sand and treated with postemergence applications of test chemicals formulated in the same manner. Plants ranged in height from 2 to 10 cm and were in the one- to two-leaf stage for the postemergence treatment. […] A dash (-) response means no test result.

[7] = test system: ragweed (common ragweed, Ambrosia artemisiifolia); test: Test A1 preemergence, ragweed
Procedure, shortened: as §2

[8] = test system: Ryegrass, Italian (Italian ryegrass, Lolium multiflorum); test: Test A1 preemergence, Ryegrass, Italian
Procedure, shortened: as §2

soybean (Glycine max) [9] = test: Test A1 preemergence, soybean
Procedure, shortened: as §2

[10] = test system: wheat (Triticum aestivum); test: Test A1 preemergence, wheat
Procedure, shortened: as §2

[11] = test system: blackgrass (Alopecurus myosuroides); test: Test A1 postemergence, blackgrass; conditions: Postemergence, 0 to 100 scale (0 no effect, 100 complete control)
Procedure, shortened: as §1

corn (Zea mays) [12] = test: Test A1 postemergence, corn; conditions: Postemergence
Procedure, shortened: as §2

[13] = test system: Foxtail, Giant (giant foxtail, Setaria faberi); test: Test A1 postemergence, Foxtail, Giant; conditions: Postemergence
Procedure, shortened: as §1

[14] = test system: goosegrass (Eleusine indica); test: Test A1 postemergence, goosegrass; conditions: Postemergence
Procedure, shortened: as §1

kochia (Bassia scoparia) [15] = test: Test A1 postemergence, kochia; conditions: Postemergence
Procedure, shortened: as §1

[16] = test system: Oat, Wild (wild oat, Avena fatua); test: Test A1 postemergence, Oat, Wild; conditions: Postemergence
Procedure, shortened: as §1

[17] = test system: Pigweed, Palmer (palmer amaranth, palmer pigweed, Amaranthus palmeri); test: Test A1 postemergence, Pigweed, Palmer; conditions: Postemergence
Procedure, shortened: as §1

[18] = test system: ragweed (common ragweed, Ambrosia artemisiifolia); test: Test A1 postemergence, ragweed; conditions: Postemergence
Procedure, shortened: as §1

[19] = test system: Ryegrass, Italian (Italian ryegrass, Lolium multiflorum); test: Test A1 postemergence, Ryegrass, Italian; conditions: Postemergence
Procedure, shortened: as §1

soybean (Glycine max) [20] = test: Test A1 postemergence, soybean; conditions: Postemergence
Procedure, shortened: as §1

[21] = test system: wheat (Triticum aestivum); test: Test A1 postemergence, wheat; conditions: Postemergence
Procedure, shortened: as §1

[22] = test system: galium (catchweed bedstraw, Galium aparine); test: Test A1 postemergence, galium; conditions: Postemergence
Procedure, shortened: as §1

[23] = test system: horseweed (Erigeron canadensis); test: Test A1 postemergence, horseweed; conditions: Postemergence
From the text: as §3

[24] = test system: barnyardgrass (Echinochloa crus-galli); test: Test B1 flooded paddy test, barnyardgrass; conditions: 250 g ai/ha, Flood, applied to paddy water, 2-leaf stage, visually evaluated after 10 to 14 days
From the text: (§4) A dash (-) response means no test result.

[25] = test system: ducksalad (Heteranthera limosa); test: Test B1 flooded paddy test, ducksalad; conditions: 250 g ai/ha, Flood, applied to paddy water, 2-leaf stage, visually evaluated after 10 to 14 days
From the text: as §4

rice (Oryza sativa) = test: Test B1 flooded paddy test, rice; conditions: 250 g ai/ha, Flood, applied to paddy water, 2-leaf stage, visually evaluated after 10 to 14 days
From the text: as §4

[26] = 31 g ai/ha, 0 to 100 scale (0 no effect, 100 complete control)
[27] = 125 g ai/ha, 0 to 100 scale, 0 no effect, 100 complete control
[28] = 31 g ai/ha, 0 to 100 scale (0 no effect, 100 complete control), 10 days

Cc1c(NS(=O)(=O)C(F)(F)F)cc(C(=O)N2CCSCC2)c(C)c1C [Compound 283]
Plant response rating, Corn (corn (Zea mays) [1]; [26]): 0
Plant response rating, Corn (corn (Zea mays) [1]; [27]): 10
Plant response rating, Foxtail, Giant [2, 26]: 10
Plant response rating, Foxtail, Giant [2, 27]: 90
Plant response rating, Goosegrass [3, 26]: 30
Plant response rating, Goosegrass [3, 27]: 60
Plant response rating, Kochia (kochia (Bassia scoparia) [4]; [26]): 30
Plant response rating, Kochia (kochia (Bassia scoparia) [4]; [27]): 90
Plant response rating, Oat, Wild [5]: 0
Plant response rating, Pigweed, Palmer [6, 26]: 10
Plant response rating, Pigweed, Palmer [6, 27]: 50
Plant response rating, Ragweed [7, 26]: 0
Plant response rating, Ragweed [7, 27]: 40
Plant response rating, Ryegrass, Italian [8, 26]: 0
Plant response rating, Ryegrass, Italian [8, 27]: 0
Plant response rating, Soybean (soybean (Glycine max) [9]; [26]): 0
Plant response rating, Soybean (soybean (Glycine max) [9]; [27]): 50
Plant response rating, Wheat [10, 26]: 0
Plant response rating, Wheat [10, 27]: 50
Plant response rating, Blackgrass ([11]; 31 g ai/ha, 10 days): 0
Plant response rating, Blackgrass ([11]; 125 g ai/ha): 10
Plant response rating, Corn (corn (Zea mays) [12]; [28]): 0
Plant response rating, Corn (corn (Zea mays) [12]; 125 g ai/ha, 0 to 100 scale): 0
Plant response rating, Foxtail, Giant [13, 28]: 80
Plant response rating, Foxtail, Giant ([13]; 125 g ai/ha, 0 to 100 scale): 90
Plant response rating, Goosegrass [14, 28]: 10
Plant response rating, Goosegrass ([14]; 125 g ai/ha, 0 to 100 scale): 30
Plant response rating, Kochia (kochia (Bassia scoparia) [15]; [28]): 20
Plant response rating, Kochia (kochia (Bassia scoparia) [15]; 125 g ai/ha, 0 to 100 scale): 60
Plant response rating, Oat, Wild [16, 28]: 0
Plant response rating, Oat, Wild ([16]; 125 g ai/ha, 0 to 100 scale): 0
Plant response rating, Pigweed, Palmer [17, 28]: 10
Plant response rating, Pigweed, Palmer ([17]; 125 g ai/ha, 0 to 100 scale): 50
Plant response rating, Ragweed [18, 28]: 30
Plant response rating, Ragweed ([18]; 125 g ai/ha, 0 to 100 scale): 80
Plant response rating, Ryegrass, Italian [19, 28]: 0
Plant response rating, Ryegrass, Italian ([19]; 125 g ai/ha, 0 to 100 scale): 40
Plant response rating, Soybean (soybean (Glycine max) [20]; [28]): 40
Plant response rating, Soybean (soybean (Glycine max) [20]; 125 g ai/ha, 0 to 100 scale): 60
Plant response rating, Wheat [21, 28]: 10
Plant response rating, Wheat ([21]; 125 g ai/ha, 0 to 100 scale): 50
Plant response rating, Galium [22, 28]: 50
Plant response rating, Galium ([22]; 125 g ai/ha, 0 to 100 scale): 70
Plant response rating, Horseweed [23, 28]: 70
Plant response rating, Horseweed ([23]; 125 g ai/ha, 0 to 100 scale): 80
Plant response rating, Barnyardgrass (0 to 100 scale, 0 is no effect, 100 is complete control) [24]: 15
Plant response rating, Ducksalad (0 to 100 scale, 0 is no effect, 100 is complete control) [25]: 50
Plant response rating, Rice (0 to 100 scale, 0 is no effect, 100 is complete control) (rice (Oryza sativa)): 0
